Values of other authors as cited in patent US20150018389A1, “METHOD FOR TREATING PARKINSONS DISEASE AND OTHER NEUROLOGICAL DISEASES” (priority 2013, published 2015).

Assays:
[1] = system: tumor necrosis factor alpha production by stimulated monocytes; details: stimulated monocytes (Sampaio et al. 1991)
[2] = system: tumor necrosis factor alpha; details: erythema nodosum leprosum, treatment with thalidomide (Sampaio et al. 1992)
HIV [3] = details: infected cell lines induced with tumor necrosis factor alpha (Schauf et al. 1992)
[4] = not given; remark: listed apart in the source
CD4 lymphocyte counts = details: erythema nodosum leprosum (Moncada et al. 1985)
[5] = serum vs in vitro pH 7.4
HIV [6] = details: peripheral blood mononuclear cells of HIV-infected patients
[7] = not given; remark: listed apart in the source

absorption (humans, orally administered): poorly absorbed | plasma protein binding (in vivo): highly bound to plasma proteins | hydrolytic cleavage in serum compared with in vitro at pH 7.4 [5]: much slower
Compound: O=C1CCC(N2C(=O)c3ccccc3C2=O)C(=O)N1 (racemic) [Thalidomide, N-phthalidoglutarimide]
tumor necrosis factor alpha production [1]: inhibit | elevated tumor necrosis factor alpha levels [2]: reduced | HIV expression (HIV [3]): inhibited | toxicity in a series of animal studies [4]: has not been toxic | previously suppressed CD4 lymphocyte counts (CD4 lymphocyte counts): increases | HIV production (HIV [6]): reduce | side effects in humans [7]: somnolence, teratogenicity and, upon extended administration, peripheral neuropathy
